# Measurements: patent publication US6890954B1, “Uses of 2-bromopalmitate in the treatment of autoimmune disease” (priority 1999, dated 2005)
# What was measured:
# Type in all cases: cell-based
# Jurkat T cells = assay: Calcium mobilization assay in Jurkat T cells (fluo-3, flow cytometry)
# Method: Jurkat cells were treated with 2-bromopalmitate as described above. The cells (2×10^5) were collected by centrifugation and resuspended at 2×10^6 cells/ml in RPMI containing in 50 μM fluo-3 with or without 100 μM 2-bromopalmitate for 30 minutes at room temperature. Cells loaded with fluo-3 were then collected by centrigation, washed with Hank's Buffered Saline Solution (5.4 mM KCl, 0.3 mM Na2HPO4, 0.4 mM KH2PO4, 4 mM NaHCO3, 1.3 mM CaCl2, 0.5 mM MgCl2, 0.6 mM MgSO4, 137 mM NaCl, 5.6 mM glucose, 20 mM Hepes pH 7.4) and resuspended in the same buffer at 5×10^5 cells/ml at 37° C. To initiate calcium flux, the cells were activated with OKT3 antibody as described above, and analyzed for free calcium ion by measurement of fluo-3 fluoresence emission by flow cytometry.
# Jurkat cells were incubated with or without 2-bromopalmitate, washed and stained with the fluorescent dye fluo-3 (50 μM). Cells were activated with OKT3 antibody and analyzed by flow cytometry. […] No effect of 2-bromopalmitate on cells incubated in the absence of OKT3 was noted.
# Lck = assay: DRM (raft) localization in activated Jurkat cells, sucrose gradient: Lck; settings: 100 μM 3 hours, OKT3 activated, control 59%
# Method: Isolation of Triton X-100 resistant and soluble fractions was carried out as described previously (12). Isolation of detergent resistant microdomains by sucrose gradients were carried out as follows (19): Jurkat cells (5×10^7) were treated with 2-bromopalmitate, activated with OKT3 mAb as described above, and lysed in 1 ml lysis buffer (25 mM MES pH 6.5, 150 mM NaCl, 0.5% Triton X-100, 1 mM Na3VO4) supplemented with protease inhibitors for 30 minutes at 0° C. After homogenizing 10 times with a loose fit Dounce homogenizer, lysates were mixed with 1 ml 85% sucrose in MBS (25 mM MES pH 6.5, 150 mM NaCl), and overlayered with 6 ml 30% sucrose in MBS, then with 4 ml 5% sucrose in MBS. Following centrifugation for 16 hours at 145,000 g in an SW40 rotor, 1 ml fractions were collected and analyzed by PAGE and immunoblotting with anti-Fyn, anti-LAT, or anti-Lck antibodies.
# The ability of 2-bromopalmitate to inhibit localization of palmitoylated proteins to detergent resistant microdomains in activated Jurkat cells was examined next. Cells were either left untreated or treated with 100 μM 2-bromopalmitate for 3 hours, washed, resuspended in serum-free media, and the TCR was activated with OKT3 mAb. Activated cells were extracted with Triton X-100 containing buffer. […] Each fraction was analyzed by immunoblotting with specific antibodies. […]
# Fyn = biological target: T1, Fyn (Homo sapiens, UniProt P06241); assay: Fyn fatty acylation (IC13/IC16 incorporation) in transfected COS-1 cells; settings: COS-1 cells, 100 μM 2-bromopalmitate, normalized for total protein levels
# T1 construct: expressed in transfected cells; host or cells: COS-1
# Method: The syntheses of 13-[^125I]-iodotridecanoic acid (IC13)or 16-[^125I]-iodohexanoic acid (IC16) were carried out as described previously (39). Cell labeling was carried out as described (12,13) with modifications. Briefly, each 60 mm plate of Fyn transfected COS-1 cells was incubated O/N in DMEM containing 2.5% FBS, 0.5% defatted BSA (Sigma) with or without 100 μM 2-bromopalmitate or 50 μM polyunsaturated fatty acid. Prior to labeling, the cells were incubated for 1 hr with 1 ml of DMEM containing 2% dialyzed FBS, then labeled for 4 hours with 25-50 μCi IC13 or IC16 in DMEM containing 2% dialyzed FBS, 0.5% defatted BSA with or without 2-bromopalmitate or polyunsaturated fatty acid. Labeled cells were washed three times with cold STE (100 mM NaCl, 10 mM Tris pH 7.4, 1 mM EDTA) and lysed in 0.6 ml of cold RIPA buffer containing protease inhibitors (10 μg/ml each of benzamidine, AEBSF, TPCK and TLCK, 1.5 μg/ml each of Leupeptin, Pepstatin A and Aprotinin). Lysates were clarified at 100,000×g for 15 min at 4° C. in a Beckman TL-100 ultracentrifuge. Lysates were immunoprecipitated with rabbit anti-Fyn antibody and protein A-agarose. Immunoprecipitates were washed three times with cold RIPA buffer and suspended in 1× sample buffer containing 100 mM dithiothreitol and subjected to SDS-PAGE. Gels were dried between cellophane and analyzed by phosphorimaging after 12-36 hours exposure. Experiments in Jurkat T cells were carried out according to the above protocol using 2×10^7 cells per experiment, and reducing the incubation time with 2-bromopalmitate to 3-4 hours.
# A number of palmitic acid analogs were screened for their ability to inhibit Fyn palmitoylation. COS-1 cells were transfected with cDNA encoding Fyn. Three days after transfection, the cells were labeled with either [^35S]-methionine, 13-[^125I]-iodotridecanoic acid (IC13), an iodinated myristate analog, or 16-[^125I]-iodohexanoic acid (IC16), an iodinated palmitic acid analog (39), in the presence or absence of nonradioactive palmitate analogs. Cells were lysed, immunoprecipitated with anti-Fyn antibody, and analyzed by SDS-PAGE and phosphorimaging. […] When normalized for total protein levels, 70% of Fyn myristoylation and over 90% of Fyn palmitoylation was inhibited in the presence of 2-bromopalmitate. Treatment of cells with other analogs, including 2-hydroxypalmitate, palmitoleic acid and 16-hydroxypalmitate had no effect (data not shown).
# To test this hypothesis, Fyn transfected COS-1 cells were incubated O/N with or without 50 μM arachidonic acid (20:4) or eicosapentaenoic acid (20:5), then labeled with IC13 or IC16. Total protein levels were monitored by immunoblotting aliquots of each sample with anti-Fyn antibody (FIG. 8A, lower panel).
# T1 sequence (P06241 whole entry, species assumed): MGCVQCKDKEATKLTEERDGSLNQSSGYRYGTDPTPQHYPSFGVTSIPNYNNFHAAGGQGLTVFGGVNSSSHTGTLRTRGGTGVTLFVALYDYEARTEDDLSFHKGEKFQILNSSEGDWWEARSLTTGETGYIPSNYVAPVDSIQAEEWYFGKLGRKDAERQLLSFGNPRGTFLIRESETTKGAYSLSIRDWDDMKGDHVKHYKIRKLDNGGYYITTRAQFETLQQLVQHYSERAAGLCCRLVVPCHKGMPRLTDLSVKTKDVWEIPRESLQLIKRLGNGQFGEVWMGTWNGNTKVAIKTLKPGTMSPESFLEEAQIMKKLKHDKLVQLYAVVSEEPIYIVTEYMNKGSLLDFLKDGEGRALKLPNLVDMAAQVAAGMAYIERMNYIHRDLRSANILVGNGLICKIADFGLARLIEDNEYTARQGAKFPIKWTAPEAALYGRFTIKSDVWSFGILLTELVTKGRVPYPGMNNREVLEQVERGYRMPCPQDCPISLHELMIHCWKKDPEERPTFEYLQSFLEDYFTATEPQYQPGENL
compound,measurement,setting,value
CCCCCCCCCCCCCCC(Br)C(=O)O (centres unmarked) [2-bromopalmitate],calcium flux in response to T cell receptor activation,"Jurkat T cells; 100 μM, OKT3 activated",shut down almost completely
same,effect on calcium in cells incubated in the absence of OKT3,Jurkat T cells; no OKT3,No effect
same,Lck found in the rafts,Lck,19%
same,Fyn myristoylation inhibited,Fyn; IC13 label,70%
same,Fyn palmitoylation inhibited,Fyn; IC16 label,over 90%
